Test results taken from patent US20080045547A1, “Salts And Co-Crystals of Pyrazolopyrimidine Compounds, Compositions Thereof And Methods For Their Production And Use” (priority 2006, published 2008).
“And” between values parts separate entries of the source, which are not always exact repeats. Identical values can stand only once.

Experiments:
[1] = Equilibrium aqueous solubility from solid; assay type: physicochemical; conditions: H20; room temperature overnight
Procedure: Samples of the ocinaplon salts shown above were evaluated for equilibrium aqueous solubility from solid. Duplicate samples of ocinaplon were accurately weighed and diluted to 1 ml with water to 6.83 mg/ml and 6.43 mg/ml. Duplicate samples of Ocinaplon di HCl salt were accurately weighed and diluted to 1 ml with water to 5.5 mg/ml and 6.0 mg/ml. Ocinaplon di HBr salt was accurately weighed and diluted to 1 ml with water to 6.1 mg/ml and 5.8 mg/ml. Ocinaplon disulfate salt was accurately weighed and diluted to 1 ml with water to 7.5 mg/ml and 6.5 mg/ml. Any change in pH of the water following sample addition was recorded. After equilibration at room temperature overnight the solutions were filtered and solute concentration determined by fast gradient HPLC with UV/VIS/MS detection with reference to 5, 10, 50, 100 and 250 μM analytical standards. Prior to sample filtration, filters were primed with 600 μl of sample to resolve potential adsorption problems. Both sample replicates were collected through the primed filter. Duplicate determinations were made in all cases.

[2] = Pharmacokinetics of different salt forms of ocinaplon after a single oral dose; assay type: in vivo; conditions: dog, plasma, male beagle dogs, 0.5% MC; for AUC(0-inf) / AUC(0-t) / Cmax: male, beagle, po
Procedure: (§1) The test compounds were prepared in 0.5% methylcellulose. The target concentrations of the free base and HBr salt were 1.0 and 1.34 mg/mL (equivalent to 1 mg of the free base), respectively. The liquid suspensions were administered via oral gavage. Prior to removing the gavage tube, the tube was flushed with approximately 5 mL of water.
(§2) Blood (approximately 2 mL) was collected from a jugular vein via syringe and needle and transferred into tubes containing K2EDTA anticoagulant predose and at 0.5, 1, 2, 3, 4, 6, 8, 12, and 24 hours postdose. Blood was maintained on wet ice, in chilled Kryoracks, or at approximately 5° C. prior to centrifugation to obtain plasma. Centrifugation began within 1 hour of collection. Plasma was placed on dry ice prior to storage at approximately −70° C. Plasma samples, remaining test compounds, and remaining dose formulations were shipped on dry ice to the analysis site and stored at approximately −70° C. before and after analysis. Samples were analyzed using an LC/MS/MS method. Plasma concentration-time data for each dog and formulation were analyzed using a noncompartmental model assumption with WinNonlin, version 4.1 (Pharsight Corporation, Mountain View, Calif.). All calculations were based on the nominal times as actual sample collection times departed minimally from the schedule times.
The pharmacokinetic parameters of different pyrazolopyrimidine acid salts vary in an apparently salt and compound dependent fashion. This is illustrated by a comparison of the pharmacokinetic properties of different acid salts of the pyrazolopyrimidine, ocinaplon. This study was performed in a manner similar to the study described in Example 9 hereinabove. The concentrations of the HCl, HBr and disulfate salts of ocinaplon were 3.72 mg/mL, 4.61 mg/mL and 4.95 mg/mL, respectively. All concentrations were calculated to be 3.0 mg free base/mL; the dose volume was […]. […] […] These findings exemplify and underscore the differences in pharmacokinetic profiles among these three exemplary salts of ocinaplon.

[3] = Pharmacokinetics of indiplon after oral administration of free base or HBr co-crystal suspension; assay type: in vivo, male beagle dogs; conditions: male dogs; for AUC(0-t) / Cmax / Tmax: single oral dose 5 mg free base/kg, 0.5% methylcellulose suspension
Procedure: The purpose of this study was to determine the pharmacokinetics of indiplon following oral administration of the free base and the HBr co-crystal in a suspension to male beagle dogs.
The test compounds used in the study were the free base and […] of indiplon. The compounds were stored at approximately 2-8° C.
Five male purebred beagles were transferred to the study from a stock colony. Each animal was identified with an individually numbered ear tattoo. The animals were acclimated for 5 days. At the time of dose administration, animals were young adult/adult age. During acclimation and the test period, animals were individually housed in wire-mesh enclosures with coated rod-bottom floors. Animals were not comingled for at least 24 hours after each dose administration to allow monitoring of any test compound-related effects. Animals had access to non-certified Canine Diet #5L03 (PMI Feeds, Inc.) ad libitum, except as specified for dose administration.
as §1, §2

[4] = Plasma pharmacokinetic comparison of zaleplon free base and HCl salt after single oral doses; assay type: in vivo; conditions: male beagle dogs; for AUC(0-inf) / AUC(0-t) / Cmax / Tmax: male, beagle, dog, plasma, po
[5] = single oral dose 50 mg/kg, mean (CV %)
[6] = 30 mg/kg, apparently scaled from 50 mg/kg
[7] = 50 mg/kg, single oral dose 50 mg/kg, mean (CV %)
[8] = dog CTZBCG, listed as Free Base Suspension
[9] = dog CUPBEG, listed as Free Base Suspension
[10] = dog CUVBAT, listed as Free Base Suspension
[11] = 2.5 mg HCl Salt/kg, single oral dose 2.5 mg HCl Salt/kg, Mean of 5 dogs
[12] = 2.5 mg HCl Salt/kg, single oral dose 2.5 mg HCl Salt/kg, dog CLT-2
[13] = 2.5 mg HCl Salt/kg, single oral dose 2.5 mg HCl Salt/kg, dog H0M004
[14] = 2.5 mg HCl Salt/kg, single oral dose 2.5 mg HCl Salt/kg, dog H1B108
[15] = 2.5 mg HCl Salt/kg, single oral dose 2.5 mg HCl Salt/kg, dog TDR2
[16] = 2.5 mg HCl Salt/kg, single oral dose 2.5 mg HCl Salt/kg, dog TKR-2
[17] = Mean, N = 5, listed as HBr Salt Suspension
[18] = dog CUPBEG, listed as HBr Salt Suspension
[19] = dog CUVBAT, listed as HBr Salt Suspension
[20] = dog CVRCVX, listed as HBr Salt Suspension
[21] = dog CVSCCL, listed as HBr Salt Suspension
[22] = 5 mg/kg, single oral dose 5.0 mg Free Base/kg, Mean of 5 dogs
[23] = 5 mg/kg, single oral dose 5.0 mg Free Base/kg, dog CLT-2
[24] = 5 mg/kg, single oral dose 5.0 mg Free Base/kg, dog H0M004
[25] = 5 mg/kg, single oral dose 5.0 mg Free Base/kg, dog H1B108
[26] = 5 mg/kg, single oral dose 5.0 mg Free Base/kg, dog TDR2
[27] = 5 mg/kg, single oral dose 5.0 mg Free Base/kg, dog TKR-2

SMILES: O=C(c1ccccn1)c1cnn2c(-c3ccncc3)ccnc12 [Ocinaplon Free base, pyridin-2-yl(7-(pyridin-4-yl)pyrazolo[1,5-a]pyrimidin-3-yl)methanone, reference compound]
- Equilibrium Aqueous Solubility from Solid [1]: 0.4 mM and 0.1 mg/ml
- Tmax [2, 5]: 1.8 h
- half-life [2, 5]: 96.6 min
- AUC(0-inf) [2, 6]: 37900 ng·h/mL
- AUC(0-t) [2, 6]: 37600 ng·h/mL
- Cmax [2, 6]: 6250 ng/mL
- AUC(0-inf) [2, 7]: 63200 ng·h/mL
- AUC(0-t) [2, 7]: 62500 ng·h/mL
- Cmax [2, 7]: 10400 ng/mL

SMILES: CC(=O)N(C)c1cccc(-c2ccnc3c(C(=O)c4cccs4)cnn23)c1 [Indiplon free base, N-methyl-N-{3-[3-(thiophene-2-carbonyl)-pyrazolo[1,5-a]pyrimidin-7-yl]-phenyl}acetamide, reference compound]
- AUC(0-t) ([3]; Mean, N = 5, listed as Free Base Suspension): 250 ng·h/mL
- AUC(0-t) [3, 8]: 408 ng·h/mL
- Cmax [3, 8]: 266 ng/mL
- AUC(0-t) [3, 9]: 160 ng·h/mL
- Cmax [3, 9]: 106 ng/mL
- Tmax [3, 9]: 60 min
- AUC(0-t) [3, 10]: 125 ng·h/mL
- Cmax [3, 10]: 101 ng/mL
- AUC(0-t) ([3]; dog CVSCCL, listed as Free Base Suspension): 277 ng·h/mL
- Cmax ([3]; male, beagle, dog, plasma, po, 5 mg/kg, Mean, N = 5, read-out: Cmax): 185 ng/mL
- Tmax ([3]; male, beagle, dog, plasma, po, 5 mg/kg, Mean, N = 5, read-out: Tmax): 36 min
- Tmax ([3]; male, beagle, dog, plasma, po, 5 mg/kg, dog CUVBAT, read-out: Tmax): 30 min
- AUC(0-t) ([3]; male, beagle, dog, plasma, po, 5 mg/kg, dog CVRCVX, read-out: AUC0-t): 279 ng·h/mL
- Cmax ([3]; male, beagle, dog, plasma, po, 5 mg/kg, dog CVRCVX, read-out: Cmax): 212 ng/mL
- Tmax ([3]; male, beagle, dog, plasma, po, 5 mg/kg, dog CVRCVX, read-out: Tmax): 30 min
- Cmax ([3]; male, beagle, dog, plasma, po, 5 mg/kg, dog CVSCCL, read-out: Cmax): 240 ng/mL

SMILES: CCN(C(C)=O)c1cccc(-c2ccnc3c(C#N)cnn23)c1.Cl [zaleplon HCl, Zaleplon Hydrochloride]
- Cmax compared with the free base ([4]; oral, calculated on a mg/kg dosing basis): essentially equivalent
- AUC(0-inf) [4, 11]: 2320 ng·h/mL
- AUC(0-t) [4, 11]: 2310 ng·h/mL
- Cmax [4, 11]: 790 ng/mL
- Tmax [4, 11]: 33 min
- AUC(0-inf) [4, 12]: 1820 ng·h/mL
- AUC(0-t) [4, 12]: 1820 ng·h/mL
- Cmax [4, 12]: 1010 ng/mL
- Tmax [4, 12]: 15 min
- AUC(0-inf) [4, 13]: 2010 ng·h/mL
- AUC(0-t) [4, 13]: 2010 ng·h/mL
- Cmax [4, 13]: 642 ng/mL
- Tmax [4, 13]: 30 min
- AUC(0-inf) [4, 14]: 1360 ng·h/mL
- AUC(0-t) [4, 14]: 1360 ng·h/mL
- Cmax [4, 14]: 587 ng/mL
- Tmax [4, 14]: 60 min
- AUC(0-inf) [4, 15]: 2650 ng·h/mL
- AUC(0-t) [4, 15]: 2650 ng·h/mL
- Cmax [4, 15]: 820 ng/mL
- Tmax [4, 15]: 30 min
- AUC(0-inf) [4, 16]: 3760 ng·h/mL
- AUC(0-t) [4, 16]: 3720 ng·h/mL
- Cmax [4, 16]: 896 ng/mL
- Tmax [4, 16]: 30 min

SMILES: CC(=O)N(C)c1cccc(-c2ccnc3c(C(=O)c4cccs4)cnn23)c1 [indiplon HBr, N-methyl-N-{3-[3-(thiophene-2-carbonyl)-pyrazolo[1,5-a]pyrimidin-7-yl]-phenyl}acetamide HBr cocrystal]
- Tmax compared to the free base ([3]; oral 5 mg free base/kg): not remarkably different
- increase in the AUC versus free base ([3]; oral 5 mg free base/kg): 226.8%
- increase in the maximum plasma concentrations achieved (Cmax) versus free base ([3]; oral 5 mg free base/kg): 69.7%
- test animals with pharmaceutical profile superior to the corresponding free base ([3]; oral 5 mg free base/kg, cross-over): 5 out of 5
- AUC(0-t) [3, 17]: 567 ng·h/mL
- Cmax [3, 17]: 314 ng/mL
- Tmax [3, 17]: 48 min
- AUC(0-t) ([3]; dog CTZBCG, listed as HBr Salt Suspension): 1130 ng·h/mL
- AUC(0-t) [3, 18]: 429 ng·h/mL
- Cmax [3, 18]: 253 ng/mL
- AUC(0-t) [3, 19]: 291 ng·h/mL
- Cmax [3, 19]: 309 ng/mL
- AUC(0-t) [3, 20]: 258 ng·h/mL
- Cmax [3, 20]: 227 ng/mL
- AUC(0-t) [3, 21]: 725 ng·h/mL
- Cmax [3, 21]: 270 ng/mL
- Tmax [3, 21]: 120 min
- Cmax ([3]; male, beagle, dog, plasma, po, 5 mg/kg, dog CTZBCG, read-out: Cmax): 513 ng/mL
- Tmax ([3]; male, beagle, dog, plasma, po, 5 mg/kg, dog CTZBCG, read-out: Tmax): 30 min
- Tmax ([3]; male, beagle, dog, plasma, po, 5 mg/kg, dog CUPBEG, read-out: Tmax): 30 min

SMILES: CCN(C(C)=O)c1cccc(-c2ccnc3c(C#N)cnn23)c1 [zaleplon free base, N-[3-(3-cyanopyrazolo[1,5-a]pyrimidin-7-yl)phenyl]-N-ethylacetamide, reference compound]
- Tmax ([4]; 5 mg Free Base/kg, single oral dose 5.0 mg Free Base/kg, Mean of 5 dogs): 66 min
- AUC(0-inf) [4, 22]: 6940 ng·h/mL
- AUC(0-t) [4, 22]: 6700 ng·h/mL
- Cmax [4, 22]: 1590 ng/mL
- AUC(0-inf) [4, 23]: 6860 ng·h/mL
- AUC(0-t) [4, 23]: 6840 ng·h/mL
- Cmax [4, 23]: 1850 ng/mL
- Tmax [4, 23]: 60 min
- AUC(0-inf) [4, 24]: 7000 ng·h/mL
- AUC(0-t) [4, 24]: 6930 ng·h/mL
- Cmax [4, 24]: 1460 ng/mL
- Tmax [4, 24]: 60 min
- AUC(0-inf) [4, 25]: 3760 ng·h/mL
- AUC(0-t) [4, 25]: 3760 ng·h/mL
- Cmax [4, 25]: 926 ng/mL
- Tmax [4, 25]: 120 min
- AUC(0-inf) [4, 26]: 2550 ng·h/mL
- AUC(0-t) [4, 26]: 2550 ng·h/mL
- Cmax [4, 26]: 1100 ng/mL
- Tmax [4, 26]: 30 min
- AUC(0-inf) [4, 27]: 14500 ng·h/mL
- AUC(0-t) [4, 27]: 13400 ng·h/mL
- Cmax [4, 27]: 2630 ng/mL
- Tmax [4, 27]: 60 min
